Square brackets hold non-standard residues; d marks the D form. Peptide text beside a SMILES is read from it. * marks the point of attachment. Dolaproine = CO[C@@H]([C@@H]1CCCN1)[C@@H](C)C(=O)O; Dil = CC[C@H](C)[C@H](NC)[C@@H](CC(=O)O)OC; dVal(3-OH) = CC(C)(O)[C@@H](N)C(=O)O; Val(3-OH) = CC(C)(O)[C@H](N)C(=O)O; Doe = c1ccc(C[C@H](N*)c2nccs2)cc1; X1 = C[C@@H](N*)[C@@H](O)c1ccccc1; NMeV = CN[C@H](C(=O)O)C(C)C; NMeAib = CNC(C)(C)C(=O)O; Aib = CC(C)(N)C(=O)O
Tests used:
Type in all cases: cell-based
[1] = test system: MES-SA (human uterine sarcoma) cells; test: Inhibitory response against MES-SA cells (Cell Titer-Glo); conditions: 72 hours of culture, inhibition of cell growth
Experimental: (§1) MES-SA (human uterine sarcoma) cells were seeded in a clear polystyrene 96-well microculture plate (Corning® Costar® 96-well flat bottom plate, Cat. #3997) in a total volume of 90 μL/well. After 24 hours of incubation in a humidified incubator at 37° C. with 5% CO2 and 95% air, 10 μL of 10×, serially diluted test agents in growth medium were added to each well (10 pt dose response curve, highest concentration 10 μM of test agent). After 72 hours of culture in a humidified incubator at 37° C., in an atmosphere of 5% CO2 and 95% air, the plated cells and Cell Titer-Glo® (Promega G7571) reagents were brought to room temperature to equilibrate for 30 minutes. 100 μL of Cell Titer-Glo® reagent was added to each well. The plate was shaken for two minutes and then left to equilibrate for ten minutes. The media/Cell Titer-Glo® reagent was transferred to a white polystyrene 96-well microculture plate (Corning® Costar® 96-well flat bottom plate, Cat. #3917) before reading luminescence on a Tecan GENios microplate reader.
Percent inhibition of cell growth is calculated relative to untreated control wells. The IC50 value for the test agents is determined using Prism 6.05 by curve-fitting of the data using the following four parameter-logistic equation:
(§2) [formula] where Top is the maximal % of control absorbance, Bottom is the minimal % of control absorbance at the highest agent concentration, Y is the % of control absorbance, X is the agent concentration, IC50 is the concentration of agent that inhibits cell growth by 50% compared to the control cells, and n is the slope of the curve.

[2] = test system: BT-474 human mammary gland ductal carcinoma cells; test: Inhibitory response against BT-474 cells (Cell Titer-Glo); conditions: 72 hours of culture, inhibition of cell growth
Experimental: as §1, with “BT-474 human mammary gland ductal carcinoma” for “MES-SA (human uterine sarcoma)”, “[…]” for “μM”
(§3) Percent inhibition of cell growth was calculated relative to untreated control wells. The IC50 value for the test agents was determined using Prism 6.05 by curve-fitting of the data using the following four parameter-logistic equation:
as §2

HCC1954 cells = test: Inhibitory response against HCC1954 cells (method analogous to BT-474); conditions: Homo sapiens, inhibition of cell growth
Experimental: as §1, with “BT-474 human mammary gland ductal carcinoma” for “MES-SA (human uterine sarcoma)”, “[…]” for “μM”
as §3, §2
Inhibitory response of test compounds against HCC1954 cells was determined using a method analogous to that used for BT-474 cells.

[3] = test system: MES-SA/Dx (multidrug-resistant human uterine sarcoma) cells; test: Inhibitory response against MES-SA/Dx cells (Cell Titer-Glo); conditions: 72 hours of culture, inhibition of cell growth
Experimental: MES-SA/Dx (multidrug-resistant human uterine sarcoma) cells are seeded in a clear polystyrene 96-well microculture plate in a total volume of 90 μL/well. After 24 hours of incubation in a humidified incubator at 37° C. with 5% CO2 and 95% air, 10 μL of 10×, serially diluted test agents in growth medium are added to each well. After 72 hours of culture in a humidified incubator at 37° C., in an atmosphere of 5% CO2 and 95% air, the plated cells and Cell Titer-Glo® (Promega G7571) reagents are brought to room temperature to equilibrate for 30 minutes. 100 μL of Cell Titer-Glo® reagent are added to each well. The plate is shaken for two minutes and then left to equilibrate for ten minutes. The media/Cell Titer-Glo® reagent is transferred to a polystyrene 96-well microculture plate before reading luminescence on a Tecan GENios microplate reader.
Percent inhibition of cell growth is calculated relative to untreated control wells. The IC50 value for the test agents is determined using Prism 6.05 by curve-fitting of the data using the following four parameter-logistic equation: […]

| SMILES | IC50 [1] [pM] | IC50 [2] [pM] | IC50 (HCC1954 cells) [pM] | IC50 [3] [pM] |
| --- | --- | --- | --- | --- |
| CC[C@H](C)[C@@H]([C@@H](CC(=O)N1CCC[C@H]1[C@H](OC)[C@@H](C)C(=O)N[C@@H](Cc1ccccc1)c1nccs1)OC)N(C)C(=O)[C@@H](NC(=O)[C@H](C(C)C)N(C)C)C(C)(C)O [Compound 101] | 35 | 2.2 | 4 | 6370 |
| CC[C@H](C)[C@@H]([C@@H](CC(=O)N1CCC[C@H]1[C@H](OC)[C@@H](C)C(=O)N[C@@H](Cc1ccccc1)c1nccs1)OC)N(C)C(=O)[C@@H](NC(=O)C(C)(C)NC)C(C)(C)O [Compound 107] (H-[NMeAib][Val(3-OH)][Dil][Dolaproine]-Doe) |  | 64 | 30 |  |
| CC[C@H](C)[C@@H]([C@@H](CC(=O)N1CCC[C@H]1[C@H](OC)[C@@H](C)C(=O)N[C@H](C)[C@@H](O)c1ccccc1)OC)N(C)C(=O)[C@@H](NC(=O)[C@H](C(C)C)N(C)C)C(C)(C)O [Compound 108] |  | 140 | 460 |  |
| CC[C@H](C)[C@@H]([C@@H](CC(=O)N1CCC[C@H]1[C@H](OC)[C@@H](C)C(=O)N[C@H](C)[C@@H](O)c1ccccc1)OC)N(C)C(=O)[C@@H](NC(=O)[C@@H](NC)C(C)C)C(C)(C)O [Compound 109] (H-[NMeV][Val(3-OH)][Dil][Dolaproine]-X1) | 14900 | 26100 | 10900 |  |
| CC[C@H](C)[C@@H]([C@@H](CC(=O)N1CCC[C@H]1[C@H](OC)[C@@H](C)C(=O)N[C@H](C)[C@@H](O)c1ccccc1)OC)N(C)C(=O)[C@@H](NC(=O)C(C)(C)NC)C(C)(C)O [Compound 110] (H-[NMeAib][Val(3-OH)][Dil][Dolaproine]-X1) | 4180 | 9090 | 2920 |  |
| CC[C@H](C)[C@@H]([C@@H](CC(=O)N1CCC[C@H]1[C@H](OC)[C@@H](C)C(=O)N[C@@H](Cc1ccccc1)c1nccs1)OC)N(C)C(=O)[C@H](CSC)NC(=O)C(C)(C)NC [Compound 111] (H-[NMeAib]C(Me)[Dil][Dolaproine]-Doe) |  | 863 | 65.6 |  |
| CC[C@H](C)[C@@H]([C@@H](CC(=O)N1CCC[C@H]1[C@H](OC)[C@@H](C)C(=O)N[C@@H](Cc1ccccc1)c1nccs1)OC)N(C)C(=O)[C@@H](NC(=O)C(C)(C)N)C(C)(C)O [Compound 113] (H-[Aib][Val(3-OH)][Dil][Dolaproine]-Doe) |  | 1220 | 1240 |  |
| CC[C@H](C)[C@@H]([C@@H](CC(=O)N1CCC[C@H]1[C@H](OC)[C@@H](C)C(=O)N[C@@H](Cc1ccccc1)c1nccs1)OC)N(C)C(=O)[C@H](NC(=O)C(C)(C)NC)C(C)(C)O [Compound 114] (H-[NMeAib][dVal(3-OH)][Dil][Dolaproine]-Doe) |  | 61.6 | 17 |  |

— US10722593B2, “Anti-cancer compounds and conjugates thereof” (SIRENAS LLC, priority 2015, dated 2020)
